Test results published in PMC5902495, “Synthesis of Symmetrical Tetrameric Conjugates of the Radiolanthanide Chelator DOTPI for Application in Endoradiotherapy by Means of Click Chemistry” (Frontiers in Chemistry, 2018).
Marks after values point to notes of the source that are not given here.

Columns and labels:
[1] = parameters: method as in Chaves et al., [1992]; details: ref Chaves et al., [1992]; cited from earlier work
[2] = Protonation constants of ligands by pH-potentiometry; assay type: physicochemical; details: 25°C, I = 0.15 M NaCl
Text: (§1) For determining the protonation constants of DOTPI(Chx)4 and DOTPI three parallel pH-potentiometric titration were made with 0.2 M NaOH in 0.002 M ligand solutions. The stability and protonation constants of the Ca^II and Zn^II complexes formed with DOTPI(Chx)4 and DOTPI ligands have been determined by direct pH-potentiometric titration made at 1:1 and 2:1 metal to ligand concentration ratios. (the concentration of ligands was 0.002 M). For the calculation of the logKML and logKMLHi values, the mL base—pH data used were obtained in the pH range 1.7–12.0.
(§2) For pH measurements and titrations, a Metrohm 785 DMP Titrino titration workstation and a Metrohm-6.0233.100 combined electrode were used. Equilibrium measurements were carried out at a constant ionic strength (0.15 M NaCl) in 6 mL samples at 25°C. The solutions were stirred, and constantly purged with N2. The titrations were performed in a pH range of 1.7–11.7. KH-phthalate (pH = 4.005) and borax (pH = 9.177) buffers were used to calibrate the pH meter. For calculation of [H^+] from measured pH values, the method proposed by Irving et al. was used (Irving et al., [1967]). A 0.01 M HCl solution was titrated with the standardized NaOH solution in the presence of 0.1 M NaCl. Differences between the measured (pHread) and calculated pH (–log[H^+]) values were used to obtain the equilibrium H^+ concentration from the pH values, measured in the titration experiments. For the equilibrium calculations, the stoichiometric water ionic product (pKw) is also needed to calculate [H^+] values in basic conditions. The VNaOH – pHread data pairs of the HCl – NaOH titration obtained in the pH range 10.5–12 have been used to calculate the pKw value (pKw = 13.85). For the calculation of the equilibrium constants the program PSEQUAD (Zekany and Nagypal, [1985]) was used.
(§3) 2. Protonation and complexation equilibria of DOTPI and
(§4) The protonation processes of the DOTPI and DOTPI(Chx)4, ligands have been studied by pH-potentiometry. The protonation constants (logKiH) of ligands are defined according to Eq. (1).
(§5) The stability and protonation constants of DOTPI and DOTPI(Chx)4 complexes with several metal ions were determined by pH-potentiometric and UV/Vis spectrophotometric, methods.
(§6) The stability and protonation constants of the metal complexes formed with the DOTPI and DOTPI(Chx)4, ligands, defined by Eqs. […]
(§7) where i = 1, 2, 3…5. The KML and KMHiL values characterizing the formation of DOTPI and DOTPI(Chx)4 complexes of CaII and ZnII have been calculated from the pH-potentiometric titration data obtained at 1:1 metal to ligand concentration ratios. The protonation constants of the complexes Cu(DOTPI) and Cu(DOTPI( Chx)4) were also determined by pH-potentiometric titrations, made at 1:1 metal to ligand concentration ratio. The pH-potentiometric titrations of DOTPI ligand were also performed at 2:1 metal-to-ligand ratio in order to examine the possible formation of dinuclear CaII-, ZnII-, and CuII-DOTPI complexes.
(§8) The stability and protonation constants of the dinuclear complexes formed with the DOTPI […]
(§9) where i=1 and 2. In calculating the equilibrium constants, the best fit of the mL base – pH data was obtained by assuming the formation of ML, MHL, MH 2L, MH3L, MH4L, MH5L, M2L, M2LH, and M2LH2 complexes with DOTPI and DOTPI(Chx)4.
(§10) (also on this page, place not known: ]H][LH[ ]LH[K 1i iH + − = DOTPI( Chx)4 f ormed ]L][M[ ]ML[K ML = ]H][LMH[ ]LMH[K 1i i LMHi + − = i 3 …5. Ca II Zn II -potentiometric pH - metal -to-ligand Cu II-DOTPI ]M][ML[ ]LM[K 2 LM2 = ]H][LHM[ ]LHM[K 1i2 i2 LHM i2 + − = pH MH 4L,) […]

[3] = Stability and protonation constants of Zn^II complexes (pH-potentiometry); assay type: physicochemical; details: 25°C
Text: as §1, §2, §3, §4, §5, §6, §7, §8, §9, §10

[4] = Stability and protonation constants of Ca^II complexes (pH-potentiometry); assay type: physicochemical; details: 25°C, I = 0.15 M NaCl, potentiometry
Text: as §1, §2, §3, §4, §5, §6
as §7, with “The pH-potentiometric titrations of DOTPI ligand were also performed at 2:1 metal-to-ligand ratio in order to examine the possible formation of dinuclear CaII-, ZnII-, and CuII-DOTPI complexes.” left out

[5] = Stability and protonation constants of Cu^II complexes (spectrophotometry, pH-potentiometry); assay type: physicochemical; details: 25°C
Method: Stability constant of Cu(DOTPI) complex was determined by spectrophotometry, studying the Cu^II-DOTPI systems at the absorption band of Cu^II-complex at [H^+] = 0.01– 0.2 M over the wavelength range of 400–800 nm. Concentrations of Cu^II and DOTPI were 1 mM. The H^+ concentration in the samples was adjusted by addition of calculated amounts of 2.0 M HCl, while ionic strength was not constant in these samples. Samples were kept at 25°C for a week. Absorbance values were determined at 9 wavelengths (550, 575, 600, 625, 650, 675, 700, 725, and 750 nm). For calculation of stability and protonation constants of Cu(DOTPI), molar absorptivities of CuCl2, and Cu(HxL) species (wherein x = 0, 1, 2 …5) were determined by recording the spectra of 1.0 × 10^−3, 2.0 × 10^−3 and 3.0 × 10^−3 M solutions of CuCl2 and Cu(DOTPI) in the pH range of 1.7–11.7. The protonation constants of the complexes Cu(DOTPI) and the stability and protonation constants of the dinuclear Cu2(DOTPI) complexes were determined by pH-potentiometric titrations, made at 1:1 and 2:1 metal to ligand concentration ratios.
The stability constant of the Cu(DOTPI(Chx)4) complex has been determined by spectrophotometry with the use of competition reactions between DOTPI(Chx)4 and EDTA for the Cu^2+ at pH = 5.0. The concentration of Cu(EDTA) was 0.2 mM, while that of the DOTPI(Chx)4 was varied between 0.1 and 1.0 mM (5 samples). The samples were kept at 25°C for 2 weeks. The absorbance values and the molar absorptivities of CuCl2, Cu(DOTPI(Chx)4), and Cu(EDTA) have been determined at 11 wavelength (300, 304, 308, 312, 316, 320, 324, 328, 332, 336, and 340 nm) values between 300 and 340 nm. The molar absorptivities of CuCl2, Cu(DOTPI(Chx)4), and Cu(EDTA) were deteremined in 0.05, 0.1, 0.2, 0.3, and 0.4 mM solutions. The absorbance and pH values were determined in the samples after the equilibrium was reached (the time needed to reach the equilibria was determined by spectrophotometry). The spectrophotometric measurements were made with the use of 1.0 cm cells with a Cary 1E spectrophotometer at 25°C. The protonation constants of Cu(DOTPI(Chx)4) complex were determined by pH-potentiometric titrations at 1:1 metal to ligand molar ratio.
as §2, with “The VNaOH – pHread data pairs of the HCl – NaOH titration obtained in the pH range 10.5–12 have been used to calculate the pKw value (pKw = 13.85).” left out
as §3, §4, §5
The stability and protonation constants of the metal complexes formed with the DOTPI and […]

[6] = Octanol-water distribution coefficients; assay type: physicochemical; details: n-octanol / PBS pH 7.4, ^177Lu-labeled tracer, n = 6
Method: Approximately 1 MBq of the ^177Lu-labeled tracer was added to a mixture of 0.5 mL phosphate buffered saline (PBS, pH 7.4) and 0.5 mL n-octanol in an Eppendorf tube (n = 6). After vigorous mixing of the suspension for 3 min, the vial was centrifuged at 11.500 g for 3 min for phase separation. 200 μL aliquots of each phase were withdrawn and measured in a gamma counter.

[7] = test system: subcutaneous LNCaP (PSMA-expressing human prostate carcinoma) xenografts; assay: Biodistribution in SCID mice bearing LNCaP xenografts; assay type: in vivo; details: compared to ^177Lu-DOTPI(DBCO-KuE)4
Method: The experiments were carried out in accordance with the German Animal Welfare Act (Tierschutzgesetz), and were previously approved by the responsible authority (Regierung von Oberbayern). The animal model, male CB-17 SCID mice bearing subcutaneous LNCaP tumor xenografts, were generated as described before (Weineisen et al., [2014]). Approximately 1–4 MBq (varying molar activities; absolute molar amounts of active compound ranging from 0.11 to 0.15 nmol) of the ^177Lu-labeled PSMA inhibitors were injected into the tail vein of the animals, which were sacrificed 1 and 24 h post injection (n = 3 per tracer per time point). Selected organs were removed, weighted and the activities contained were measured in a γ-counter.

O=C([O-])CN1CCN(CC(=O)O)CCN(CC(=O)O)CCN(CC(=O)O)CC1.[Na+] [[Na(DOTA)]^3−]
logKNaL [1]: 4.38

O=C(CCP(=O)(O)CN1CCN(CP(=O)(O)CCC(=O)NC2CCCCC2)CCN(CP(=O)(O)CCC(=O)NC2CCCCC2)CCN(CP(=O)(O)CCC(=O)NC2CCCCC2)CC1)NC1CCCCC1 [DOTPI(Chx)4]
log K1H [2]: 9.89 (1)
log K2H [2]: 7.73 (1)
log K3H [2]: 3.34 (1)
Σlog KiH (total basicity) ([2]; distant carboxylate groups of DOTPI not considered): 20.96
protonation constant ZnHL ([3]; 0.15 M NaCl): 2.44 (8)
logKML, ZnL ([3]; I = 0.15 M NaCl, potentiometry): 15.13 (1)^b
logKML, CaL [4]: 8.99 (2)^b
protonation constant CuH2L ([5]; 0.15 M NaCl): 1.55 (2)
protonation constant CuHL ([5]; 0.15 M NaCl): 2.46 (1)
logKML, CuL ([5]; I = 0.15 M NaCl, UV/Vis spectroscopy): 20.42 (1)^a

O=C(O)CC[C@H](NC(=O)N[C@@H](CCCCNC(=O)CCCCCNC(=O)CCc1cn(CCCNC(=O)CCP(=O)(O)CN2CCN(CP(=O)(O)CCC(=O)NCCCn3cc(CCC(=O)NCCCCCC(=O)NCCCC[C@H](NC(=O)N[C@@H](CCC(=O)O)C(=O)O)C(=O)O)nn3)CCN(CP(=O)(O)CCC(=O)NCCCn3cc(CCC(=O)NCCCCCC(=O)NCCCC[C@H](NC(=O)N[C@@H](CCC(=O)O)C(=O)O)C(=O)O)nn3)CCN(CP(=O)(O)CCC(=O)NCCCn3cc(CCC(=O)NCCCCCC(=O)NCCCC[C@H](NC(=O)N[C@@H](CCC(=O)O)C(=O)O)C(=O)O)nn3)CC2)nn1)C(=O)O)C(=O)O (single isomer, unassigned) [^177Lu-DOTPI(Trz-KuE)4, metal not drawn]
logD [6]: -5 ± 0.1
kidney uptake ([7]; 1 and 24 h post injection): remarkably low
tumor-to-organ ratios ([7]; after 24 h): substantially better
washout from non-target tissues [7]: much faster
